Reference: article PMC9495004, “In Vitro Biological Activity of Natural Products from the Endophytic Fungus Paraboeremia selaginellae against Toxoplasma gondii” (Antibiotics, 2022)
Converted amounts (≈) assume the structure as drawn. Read-outs that look alike come from different tables or passages of the source.

Tests used:
[1] = test system: M. tuberculosis H37Rv; experiment: Minimal inhibitory concentration, resazurin reduction assay, M. tuberculosis; format: cell-based, Mycobacterium tuberculosis; conditions: for MIC90: Mycobacterium tuberculosis, H37RV, 120 h, read-out: MIC90 M. tuberculosis H37Rv
[2] = test system: Plasmodium falciparum; conditions: cited from earlier work
[3] = test system: P. aeruginosa ATCC 87110; experiment: Minimal inhibitory concentration assay (BacTiter Glo), P. aeruginosa; format: cell-based; conditions: Pseudomonas aeruginosa, read-out: MIC90 P. aeruginosa ATCC 87110
[4] = test system: THP-1 (human monocytic leukemia cell line); experiment: Resazurin cytotoxicity assay, THP-1; format: cell-based; conditions: for IC50: Homo sapiens, read-out: Mean IC50 THP1
Experimental: (§1) Figure 5 Effect of the natural products on the viability of THP-1, Huh-7, and HEK-293 cells. Cytotoxic effect of NK-A17e233 (A); 1,2-benzenediol,3-(4-hydroxy-2-methoxy-6-methylphenoxy)-5-methyl-(ACI) (B); cyperin (C); ES-242-1 (D); ES-242-3 (E); 5S,6S-phomalactone (F) against the human cell lines THP-1, Huh-7, and HEK-293 as determined by resazurin assay. 100% growth control DMSO, 0% growth control cycloheximide. Values represent the means of triplicates ± SEM.
(§2) The cytotoxicity study was carried out using the THP-1 (human monocytic leukemia cell line), Huh-7 (Human liver carcinoma cell line), and HEK293 (human embryonic kidney cell line) cell lines as described before. The THP-1 cells were cultured using RPMI 1640 medium containing 2 mM L-glutamine and supplemented with 10% fetal calf serum (FCS) and 1% sodium pyruvate. Huh-7 cells were cultured using a 1:1 mixture of RPMI 1640 medium containing 2 mM L-glutamine and 10% FCS medium and DMEM containing 10% FCS and 1% sodium pyruvate. The HEK-293 cells were cultured with DMEM including 2 mM L-glutamine and supplemented with 1% NE amino acids, 1% 1.0 mM sodium pyruvate and 10% FCS. All three cell lines were then incubated at 37 °C in an atmosphere of 5% CO2 under humid conditions for 2 weeks while renewing the medium twice weekly. Subsequently, the cells were suspended and adjusted to a density of 2 × 10^5 cells/mL. In a 96-well flat-bottom microtiter plate, the cells were adjusted to a total volume of 100 μL containing 2-fold serial dilutions of the tested compounds A–F ranging from 100 to 1.56 μM. Cycloheximide (4, 2, 1, 0.5, 0.25, 0.13, 0.06, 0.03 µg/mL) was used as a positive control. After an incubation time of 48 h at 37 °C in an atmosphere of 5% CO2 under humid conditions, 10 μL resazurin solution (100 μg/mL) was added to each well and incubated for another 4 h. The fluorescence was then quantified using a Tecan Infinite 200pro microplate reader (excitation 540 nm, emission 590 nm). The residual growth was calculated relative to non-inoculated conditions (0% growth) and controls treated with DMSO (100% growth).

[5] = test system: HEK293 (human embryonic kidney cell line); experiment: Resazurin cytotoxicity assay, HEK-293; format: cell-based; conditions: for IC50: Homo sapiens, read-out: Mean IC50 HEK-293
Experimental: as §1, §2

[6] = MTT cell viability assay against Hs27 cells; format: cell-based; conditions: human, Hs27 fibroblast cells, >100 µM indicates no activity, read-out: CC50 against human fibroblasts Hs27
Experimental: Figure 4 Effect of the natural products on the metabolic activity of Hs27 cells via MTT assay. Hs27 cells were plated in 96-well plates and grown to confluence prior to incubation at 37 °C for 24 h with the natural products in the concentration range of […]. The cultures were incubated with 10 μL of the 12 mM MTT stock solution for approximately 4 h. Afterwards, 100 μL of SDS dissolved in HCl was added to each well and incubated again for 4 h at 37 °C. Finally, the absorbance was measured at 570 nm by spectrophotometry. Values shown in (A–F) represent the means of three independent experiments each done in duplicate (n = 6) ± SEM. Cytotoxicity in Hs27 cells of NK-A 17e233 (A); 1,2-benzenediol, 3-(4-hydroxy-2-methoxy-6-methylphenoxy)-5-methyl-(ACI) (B); cyperin (C); ES-242-1 (D); ES-242-3 (E); 5S,6S-phomalactone (F).
The 3-[4,5-dimethylthiazole-2-yl]-2,5-diphenyltetrazolium bromide (MTT) test was used to assess cell viability of the isolated active compounds against Hs27 cells. The MTT assay is a colorimetric reaction based on the enzymatic reduction of MTT to MTT-formazan, which is catalyzed by mitochondrial succinate dehydrogenase.
In brief, Hs27 cells were seeded 96-well plates in a monolayer in Iscove’s modified Dulbecco’s medium (Gibco–Thermo Fisher Scientific, Braunschweig, Germany) and incubated at 37 °C with different concentrations of the tested natural products (1.56, 3,12, 6.25, 12,5, 25, 50, 100 µM) in the culture media. Staurosporine ([…], 0.25, 0.5, 1 µM), a well-known cytotoxicity-inducing kinase inhibitor [40], untreated Hs27 cells, and DMSO were used as controls. After 24 h, the medium of the culture was removed and replaced with 100 μL of DMEM without red phenol (Gibco–Thermo Fisher Scientific, Braunschweig, Germany) plus 10% heat-inactivated fetal bovine serum (Invitrogen, Karlsruhe, Germany), and […] 2-mercaptoethanol (Gibco–Thermo Fisher Scientific, Braunschweig, Germany). Afterwards, the 12 mM MTT solution was added to each well according to the manufacturer’s instruction (Vybrant MTT Cell Proliferation Assay Kit, Thermo Fisher Scientific, Braunschweig, Germany). The OD value of each well was assayed at the wavelength of 570 nm on a microplate reader (TECAN Sunrise, Männedorf, Switzerland). The 50% cytotoxic concentration (CC50 values) of the tested natural products on Hs27 cells was calculated and all data were analyzed using Prism GraphPad version 9.2.0 software.

[7] = test system: T. gondii strain ME49; experiment: T. gondii proliferation assay (3H-uracil incorporation); format: cell-based, Toxoplasma gondii
[8] = test system: Huh-7 (Human liver carcinoma cell line); experiment: Resazurin cytotoxicity assay, Huh-7; format: cell-based; conditions: for IC50: Homo sapiens, read-out: Mean IC50 Huh-7
Experimental: as §1, §2

[9] = test system: S. aureus ATCC 700699; experiment: Minimal inhibitory concentration assay (BacTiter Glo), S. aureus; format: cell-based; conditions: Staphylococcus aureus, read-out: MIC90 S. aureus ATCC 700699
[10] = 5 days, resazurin, >100 µM indicates no activity
[11] = reported activity, read-out: IC50 against P. falciparum
[12] = ATCC87110, 24 h, >100 µM indicates no activity
[13] = THP-1, resazurin assay, 48 h, >100 µM indicates no activity
[14] = resazurin assay, 48 h, >100 µM indicates no activity
[15] = HEK293, resazurin assay, 48 h, >100 µM indicates no activity
[16] = Toxoplasma gondii, HS27, Hs27 host cells, 48 h treatment, 3H-uracil incorporation, read-out: IC50 against T. gondii strain ME49 (proliferation)
[17] = Huh-7, resazurin assay, 48 h, >100 µM indicates no activity
[18] = ATCC700699, 24 h, >100 µM indicates no activity
[19] = Hs27 host cells, 48 h treatment, 3H-uracil incorporation
[20] = Toxoplasma gondii, HS27, read-out: IC50 against T. gondii strain ME49 (proliferation)

Row | SMILES | MIC90 [1, 10] | MIC90 [3, 12] | IC50 [4, 13] | IC50 [5, 15] | CC50 at 24 h [6] | IC50 [7, 16] | IC50 [8, 17] | MIC90 [9, 18] | MIC90 M. tuberculosis H37Rv [1, 10] | IC50 [7, 20] | other results
1 | COc1cc(OC)c2c(O)c3c(c(-c4c5c(c(O)c6c(OC)cc(OC)cc46)CO[C@@H](C)[C@H]5OC(C)=O)c2c1)C(O)[C@@H](C)OC3 (stereo partly shown) [E, ES-242-3] | 100 µM (≈ 62.1 µg/mL) | > 100 µM | 21.9 µM | 16.9 µM | > 100 µM | 18 µM | 13 µM | > 100 µM | – | – | IC50 [2, 11]: 13.2 µM; Mean IC50 THP1 [4, 14]: moderate cytotoxic activity; Mean IC50 HEK-293 [5, 14]: moderate cytotoxic activity; Mean IC50 Huh-7 [8, 14]: moderate cytotoxic activity
2 | CCC(C)CC(C)/C=C(C)/C=C/CC(C)C(O)C(C)/C=C(C)/C=C/C(O)C(C)(C)c1cc(O)c([C@H]2O[C@@H](CO)C[C@@H](O)[C@@H]2O)c(=O)o1 (stereo partly shown) [H, S 39163/F-1] | > 100 µM | > 100 µM | – | – | – | – | – | > 100 µM | no inhibitory effect | – | IC50 against T. gondii strain ME49 (proliferation) [7, 19]: Not active
3 | COc1cc(O)cc(C)c1Oc1cc(C)cc(O)c1O [B, 3-(4-Hydroxy-2-methoxy-6-methylphenoxy)-5-methylbenzene-1,2-diol] | > 100 µM | > 100 µM | > 100 µM | > 100 µM | > 100 µM | 19.4 µM | > 100 µM | > 100 µM | no inhibitory effect | – | IC50 ([7]; Hs27 host cells, 48 h treatment, 3H-uracil incorporation, read-out: IC50 against T. gondii strain ME49 (proliferation)): 22.2 µM
4 | C/C=C/[C@@H]1OC(=O)C=C[C@@H]1O [F, 5S,6S-phomalactone] | – | 100 µM (≈ 15.4 µg/mL) | 24.3 µM | 66.9 µM | 81 µM | – | 100 µM | > 100 µM | no inhibitory effect | 5.13 µM | MIC90 [1]: > 100 µM; IC50 ([2]; previous report, read-out: IC50 against Plasmodium falciparum): 84.3 µM; Mean IC50 HEK-293 [5, 14]: no or weak cytotoxic effects; Mean IC50 Huh-7 [8, 14]: no or weak cytotoxic effects
5 | Cc1cc(O)c(C)c(=O)o1 [G, methyltriaceticlactone] | > 100 µM | > 100 µM | – | – | – | – | – | > 100 µM | no inhibitory effect | – | IC50 against T. gondii strain ME49 (proliferation) [7, 19]: Not active
6 | CCc1nc(N)nc(N)c1-c1ccc(Cl)cc1 [pyrimethamine, reference compound] | – | – | – | – | 44 µM | – | – | – | – | 0.06 µM | –
7 | COc1cc(C)c(Oc2cc(C)cc(O)c2)c(O)c1 [Compound C, cyperin] | – | – | – | – | > 100 µM | – | – | – | no inhibitory effect | 27.2 µM | MIC90 [1]: > 100 µM; MIC90 ([3]; ATCC87110, 24 h): > 100 µM; IC50 ([4]; THP-1, 48 h): > 100 µM; IC50 ([5]; HEK293, 48 h): > 100 µM; IC50 ([8]; Huh-7, 48 h): > 100 µM; MIC90 ([9]; ATCC700699, 24 h): > 100 µM
8 | COc1cc(C)c(Oc2cc(C)cc(O)c2O)c(O)c1 [Compound A, NK-A 17e233] | > 100 µM | > 100 µM | > 100 µM | > 100 µM | > 100 µM | 5.75 µM | > 100 µM | > 100 µM | no inhibitory effect | – | –
9 | COc1cc(OC)c2c(O)c3c(c(-c4c5c(c(O)c6c(OC)cc(OC)cc46)CO[C@@H](C)[C@H]5OC(C)=O)c2c1)C[C@@H](C)OC3 [D, ES-242-1] | 50 µM (≈ 30.2 µg/mL) | > 100 µM | > 100 µM | 93.8 µM | > 100 µM | 7.38 µM | > 100 µM | > 100 µM | – | – | IC50 [2, 11]: 8.44 µM
